Test results as given in ChEMBL document CHEMBL4680201, “Design, synthesis, and pharmacological evaluation of 4- or 6-phenyl-pyrimidine derivatives as novel and selective Janus kinase 3 inhibitors” (Eur J Med Chem, 2020).

Legend:
[1] = MRT (0 to t) in ICR mouse at 10 mg/kg, iv administered as single dose by LC-MS/MS analysis; format: ADME, organism-based; details: in vivo
[2] = target: T1, ITK (Tyrosine-protein kinase ITK/TSK) (Homo sapiens, UniProt Q08881); experiment: Inhibition of recombinant human GST-tagged full length ITK expressed in baculovirus expression system at 100 nM using Tyr01 peptide as substrate incubated for 1 hr by Z'lyte assay relative to control; details: probe Tyr01 peptide
T1 sequence (Q08881 whole entry): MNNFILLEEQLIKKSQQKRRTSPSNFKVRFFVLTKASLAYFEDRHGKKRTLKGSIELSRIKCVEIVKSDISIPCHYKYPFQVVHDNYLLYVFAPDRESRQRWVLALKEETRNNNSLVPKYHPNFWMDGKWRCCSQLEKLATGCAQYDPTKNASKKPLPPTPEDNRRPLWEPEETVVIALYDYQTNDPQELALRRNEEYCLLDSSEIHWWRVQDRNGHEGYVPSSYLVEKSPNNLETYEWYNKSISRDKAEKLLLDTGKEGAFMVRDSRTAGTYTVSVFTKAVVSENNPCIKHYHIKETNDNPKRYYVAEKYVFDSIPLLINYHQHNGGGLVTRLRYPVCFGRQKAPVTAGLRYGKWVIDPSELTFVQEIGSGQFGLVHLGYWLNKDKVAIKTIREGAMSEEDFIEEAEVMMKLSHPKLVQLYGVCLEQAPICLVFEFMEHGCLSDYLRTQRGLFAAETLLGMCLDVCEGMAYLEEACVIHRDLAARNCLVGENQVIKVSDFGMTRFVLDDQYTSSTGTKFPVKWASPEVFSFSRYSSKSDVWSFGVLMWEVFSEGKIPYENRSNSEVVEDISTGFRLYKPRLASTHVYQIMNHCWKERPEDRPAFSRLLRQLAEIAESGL

[3] = AUC (0 to t) in ICR mouse at 10 mg/kg, iv administered as single dose by LC-MS/MS analysis; format: ADME, organism-based; design: dose 10 mg/kg; details: in vivo
[4] = Plasma clearance in ICR mouse at 30 mg/kg, po administered as single dose via gavage by LC-MS/MS analysis; format: ADME, organism-based; details: in vivo
[5] = target: T2, Tyrosine-protein kinase JAK3 (Homo sapiens) (UniProt P52333); experiment: Inhibition of recombinant human GST-tagged JAK3 catalytic domain (781 to 1124 residues) expressed in baculovirus expression system using Tyr06 peptide as substrate at 100 nM incubated for 1 hr by Z'lyte assay relative to control
T2 sequence (whole entry): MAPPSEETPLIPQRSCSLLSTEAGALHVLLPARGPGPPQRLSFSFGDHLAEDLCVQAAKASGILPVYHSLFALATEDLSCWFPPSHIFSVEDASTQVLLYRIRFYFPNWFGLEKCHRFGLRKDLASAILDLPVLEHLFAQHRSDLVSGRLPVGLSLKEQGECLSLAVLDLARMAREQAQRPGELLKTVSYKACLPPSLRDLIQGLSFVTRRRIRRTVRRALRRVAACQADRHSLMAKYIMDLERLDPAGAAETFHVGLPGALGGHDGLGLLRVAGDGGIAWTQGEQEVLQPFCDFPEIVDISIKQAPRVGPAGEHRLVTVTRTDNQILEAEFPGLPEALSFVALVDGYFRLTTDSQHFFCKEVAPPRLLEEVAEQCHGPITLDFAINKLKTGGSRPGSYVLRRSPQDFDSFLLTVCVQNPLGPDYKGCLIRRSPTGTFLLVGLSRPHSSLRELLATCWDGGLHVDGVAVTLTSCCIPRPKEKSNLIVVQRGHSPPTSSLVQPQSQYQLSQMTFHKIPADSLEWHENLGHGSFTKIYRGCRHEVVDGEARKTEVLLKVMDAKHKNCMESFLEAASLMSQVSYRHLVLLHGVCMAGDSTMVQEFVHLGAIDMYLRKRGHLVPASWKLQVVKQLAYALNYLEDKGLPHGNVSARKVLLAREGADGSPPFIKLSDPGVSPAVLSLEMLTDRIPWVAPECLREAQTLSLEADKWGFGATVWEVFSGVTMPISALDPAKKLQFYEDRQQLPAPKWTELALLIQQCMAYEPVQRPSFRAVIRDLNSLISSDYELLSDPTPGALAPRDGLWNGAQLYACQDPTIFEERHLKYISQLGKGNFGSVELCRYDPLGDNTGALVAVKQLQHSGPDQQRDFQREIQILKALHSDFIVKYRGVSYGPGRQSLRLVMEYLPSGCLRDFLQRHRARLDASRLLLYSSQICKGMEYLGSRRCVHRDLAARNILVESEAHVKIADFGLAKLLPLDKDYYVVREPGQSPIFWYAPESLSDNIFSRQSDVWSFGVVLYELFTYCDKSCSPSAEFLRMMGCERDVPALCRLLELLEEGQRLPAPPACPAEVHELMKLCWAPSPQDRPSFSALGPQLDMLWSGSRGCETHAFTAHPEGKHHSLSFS

[6] = target: T3, BMX (Cytoplasmic tyrosine-protein kinase BMX) (Homo sapiens, UniProt P51813); experiment: Inhibition of recombinant human His-tagged full length BMX expressed in baculovirus expression system at 100 nM using Tyr 01 as substrate incubated for 60 mins by Z'-Lyte assay relative to control; details: probe Tyr 01
T3 sequence (P51813 whole entry): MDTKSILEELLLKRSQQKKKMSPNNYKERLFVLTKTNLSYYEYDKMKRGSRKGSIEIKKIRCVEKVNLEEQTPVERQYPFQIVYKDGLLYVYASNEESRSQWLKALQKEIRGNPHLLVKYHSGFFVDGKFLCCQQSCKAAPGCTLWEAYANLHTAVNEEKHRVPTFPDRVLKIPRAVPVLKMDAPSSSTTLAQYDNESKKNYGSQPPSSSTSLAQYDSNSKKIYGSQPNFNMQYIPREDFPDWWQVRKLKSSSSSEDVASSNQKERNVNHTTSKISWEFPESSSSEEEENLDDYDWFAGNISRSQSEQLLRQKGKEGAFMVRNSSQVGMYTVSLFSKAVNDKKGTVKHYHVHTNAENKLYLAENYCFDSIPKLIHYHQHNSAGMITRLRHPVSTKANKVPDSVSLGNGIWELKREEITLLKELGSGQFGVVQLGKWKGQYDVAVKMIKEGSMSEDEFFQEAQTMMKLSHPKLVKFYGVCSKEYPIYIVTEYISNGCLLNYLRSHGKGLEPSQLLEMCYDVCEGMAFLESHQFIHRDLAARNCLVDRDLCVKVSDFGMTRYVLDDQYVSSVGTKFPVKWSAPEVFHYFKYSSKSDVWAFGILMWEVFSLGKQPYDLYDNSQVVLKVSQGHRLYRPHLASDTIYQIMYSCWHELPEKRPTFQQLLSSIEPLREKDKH

[7] = Cytotoxicity against IL-4-treated mouse T cells assessed as reduction in cell viability at 10 uM measured after 72 hrs by MTS assay; format: cell-based
[8] = Toxicity in Balb/c mouse model of oxazolone-induced delayed type hypersensitivity assessed as change in microscopic examination up to 30 mg/kg, po; format: organism-based; details: in vivo
[9] = Cytotoxicity against resting mouse T cells assessed as reduction in cell viability at 10 uM measured after 72 hrs by MTS assay; format: cell-based

- MRT last [1]: 43.8 min
- inhibition at 1 h, 0.1 µM [2]: 2.3%
- AUC(0-t) [3]: 1240 ng·h/mL
- CLz/F [4]: 97.14 L/h/kg
- inhibition [5]: 100%
- inhibition at 1 h, 0.1 µM [6]: 3.7%
Compound: C=CC(=O)Nc1ccc(-c2ccnc(Nc3ccc(N4CCOCC4)cc3)n2)cc1
- Activity [7]: Non-Toxic
- Activity [8]: Non-Toxic
- Activity [9]: Non-Toxic
